Results published in paper PMC8985176, “Structural transformation of methasterone with Cunninghamella blakesleeana and Macrophomina phaseolina” (RSC Advances, 2022).
Converted amounts (≈) assume the structure as drawn. Like-named read-outs stand apart in the source and are kept apart here.

Key:
[1] = system: NCI-H460 (lung cancer) cell line; assay: Cytotoxicity MTT assay, NCI-H460 cells; format: cell-based; settings: Homo sapiens, 48 h
Protocol: (§1) MCF-7 (breast cancer), NCI-H460 (lung cancer), HeLa (cervical cancer) cell lines, and BJ (normal human fibroblast) cell lines were collected from cell culture biobank (PCMD, ICCBS). DMEM medium was used for MCF-7, HeLa, and BJ, and RPMI (ATCC modified medium) was used for NCI-H460. The media was supplemented with 10% FBS, 100 IU mL^−1 of penicillin, and 100 μg mL^−1 of streptomycin, and kept at 37 °C in a 5% CO2 incubator. The inhibition was investigated by MTT assay. Briefly, 100 μL per well of cell solutions (10 × 10^4 cells per mL MCF-7 cells, 5 × 10^4 cells per mL NCI-H460 cells, 6 × 10^4 cells per mL HeLa cells, or 5 × 10^4 cells per mL BJ cells), were added into 96-well plate and incubated for 24 h at 37 °C, before treatment with 6.25–50 μM of compounds or positive control doxorubicin for 48 h. After this, 20 μL of MTT (5 mg mL^−1) was added to each well and then incubated for 4 h at 37 °C. Then 100 μL DMSO was added to each well to dissolve the purple formazan crystal. The absorbance was analyzed at 570 nm (MCF-7, NCI-H460, and HeLa) or 550 nm (BJ) using an ELISA plate reader.

[2] = system: MCF-7 (breast cancer) cell line; assay: Cytotoxicity MTT assay, MCF-7 cells; format: cell-based; settings: Homo sapiens, MCF7, 48 h
Protocol: as §1

[3] = system: nitric oxide (NO) production; assay: Nitric oxide (NO) production inhibitory assay (Griess method, LPS-stimulated J774.2 macrophages); format: cell-based, mouse
Protocol: The J774.2 cell line (mouse macrophage) was obtained from (European Collection of Cell Cultures, Salisbury, UK). It was cultivated in […] flasks (IWAKI, Asahi Techno Glass, Shizuoka, Japan), containing DMEM (Sigma-Aldrich, Steinheim, Germany) and fetal bovine serum (FBS) (10%) (GIBCO, New York, NY, USA) and 1% streptomycin/penicillin, and were incubated in 5% CO2 at 37 °C. Fully-grown cells (10^6 cells per mL) were transferred into the 96-well plate, and NO synthase was added into the wells by E. coli (30 μg mL^−1) lipopolysaccharide (LPS) (DIFCO Laboratories, Detroit, MI, USA) for NO production. Samples were tested with different concentrations (1, 10, and 25 μg mL^−1), and placed in CO2 (5%) at 37 °C. N^G monomethyl L-arginine acetate (LNMMA) was used as a standard NO inhibitor. Griess method was used to analyze the accumulation of nitrite in the cells.[35] IC50 values were calculated by a Microsoft Excel-based formula.

[4] = system: HeLa (cervical cancer) cell line; assay: Cytotoxicity MTT assay, HeLa cells; format: cell-based; settings: Homo sapiens, 48 h
Protocol: as §1

[5] = Cytotoxicity MTT assay, BJ cells; format: cell-based; settings: human, BJ normal human fibroblast cells, μM converted to μg mL^−1, read-out: IC50 cytotoxicity against human normal cell line (BJ)
Protocol: as §1

[6] = J774.2 mouse macrophages, LPS 30 μg mL^−1, Griess method, read-out: IC50 against nitric oxide (NO) production

Structure (SMILES) | melting point | inhibition at 50 µM [1] | inhibition at 50 µM [2] | IC50 ([3]; Mus musculus, J774.2, read-out: IC50 against nitric oxide (NO) production) | inhibition at 50 µM [4] | IC50 [3, 6] | IC50 against nitric oxide (NO) production ([3]; J774.2 mouse macrophages, LPS 30 μg mL^−1, Griess method) | IC50 ([1]; read-out: IC50 against NCI-H460) | IC50 at 48 h [5]
CC1CC2(C)C(CC1=O)C(O)CC1C3CCC(C)(O)C3(C)CCC12O (stereo not drawn) [Compound 7, 6β,9α,17β-Trihydroxy-2α,17α-dimethyl-5α-androstane-3-one] | 139 to 141 °C | < 50% | < 50% | 40.2 ± 3.3 µg/mL (≈ 115 µM) | < 50% | – | – | – | –
C[C@@H]1C[C@@]2(C)[C@H](CC1=O)[C@H](O)[C@H](O)[C@@H]1[C@@H]2CC[C@@]2(C)[C@H]1CC[C@]2(C)O [Compound 2, 6β,7β,17β-Trihydroxy-2α,17α-dimethyl-5α-androstane-3-one] | 139 to 141 °C | < 50% | < 50% | – | < 50% | 38.1 ± 0.5 µg/mL (≈ 109 µM) | – | – | –
CC(=O)O.CNC(=N)NCCC[C@H](N)C(=O)O [LNMMA, N^G monomethyl L-arginine acetate, reference compound] | – | – | – | – | – | – | 24.2 ± 0.8 µg/mL | – | –
COc1cccc2c1C(=O)c1c(O)c3c(c(O)c1C2=O)C[C@@](O)(C(=O)CO)C[C@@H]3O[C@H]1C[C@H](N)[C@H](O)[C@H](C)O1 [doxorubicin, reference compound] | – | – | – | – | – | – | – | 0.76 ± 0.05 µg/mL (≈ 1.4 µM) | –
CC1CC2(C)C(CCC3C2CCC2(C)C3CCC2(C)O)CC1=O (centres unmarked) [Compound 1, methasterone] | – | < 50% | < 50% | – | < 50% | 23.9 ± 0.2 µg/mL (≈ 75 µM) | – | – | 8.01 ± 0.52 µg/mL (≈ 25.1 µM)
